Test results from patent US5229116A, “Administration of pharmaceutical agents” (priority 1989, dated 1993).
Each block holds one compound with its values, some of them ahead of it.

Assay: In vivo pharmacokinetic studies of dihydropyridines given orally with water, grapefruit juice or orange juice (plasma concentration, GC analysis)
Parameters: species or system human (healthy subjects, hypertensive patients)
Conditions: human, po, mean; for AUC(0-inf): zero to infinity
Experimental: Hypertensive patients and healthy volunteers were given commercially available formulations of dihydropyridines in the morning after an overnight fast. The tablets were taken either with water, orange juice, or, as a source of flavonoids, 200 ml grapefruit juice. This contains about 150 mg of flavonoids, either as aglycones or glycosides.
The protocols for the five studies are shown on Table 2.
Blood samples for the analysis of the dihydropyridine and the first metabolite were drawn before and at frequent intervals after dose via an indwelling antecubital cannula. Samples were centrifuged and the plasma frozen (-20° C.) until analysis.
The maximum plasma concentration, Cmax, and the corresponding time to reach peak concentration, tmax, were recorded from the individual plasma concentration time curves of the dihydropyridine and its first metabolite. The area from zero to infinity was calculated adding the residual area to the area from zero to last determinable plasma concentration value by using the slope of the log plasma concentration time curve in the 3 to 8 hour interval after dose.

[1] = plasma, 10 mg, nitrendipine 10 mg tablets, healthy subjects, n = 3, grapefruit juice
[2] = plasma, 10 mg, nitrendipine 10 mg tablets, healthy subjects, n = 3, water
[3] = plasma, felodipine ER tablets, healthy subjects, n = 9, grapefruit juice
[4] = plasma, felodipine ER tablets, healthy subjects, n = 9, water
[5] = plasma, felodipine plain tablets, healthy subjects, n = 9, grapefruit juice
[6] = plasma, felodipine plain tablets, healthy subjects, n = 9, water
[7] = plasma, felodipine plain tablets, patients, n = 6, grapefruit juice
[8] = plasma, felodipine plain tablets, patients, n = 6, orange juice
[9] = plasma, felodipine plain tablets, patients, n = 6, water

SMILES: CCOC(=O)C1=C(C)NC(C)=C(C(=O)OC)C1c1cccc([N+](=O)[O-])c1 (stereo not drawn) [Nitrendipine]
Tmax (in vivo, 10 mg, nitrendipine 10 mg tablets, healthy subjects, n = 3, grapefruit juice): 1.3 ± 0.5 h
Tmax (in vivo, 10 mg, nitrendipine 10 mg tablets, healthy subjects, n = 3, water): 1.5 h
Cmax [1]: 8.9 ± 4.8 nM
AUC(0-inf) [1]: 0.035 ± 0.0195 µM·h
Cmax [2]: 3.7 ± 1.8 nM
AUC(0-inf) [2]: 0.0151 ± 0.0058 µM·h

Cmax [3]: 8.9 ± 3.3 nM
Tmax [3]: 3.2 ± 0.8 h
AUC(0-inf) [3]: 0.0478 ± 0.0157 µM·h
Cmax [4]: 3.4 ± 1.6 nM
Tmax [4]: 3.4 ± 0.9 h
AUC(0-inf) [4]: 0.0274 ± 0.0123 µM·h
Cmax [5]: 16.3 ± 7.1 nM
Tmax [5]: 2.1 ± 0.9 h
AUC(0-inf) [5]: 0.065 ± 0.0263 µM·h
Cmax [6]: 6.6 ± 3.6 nM
Tmax [6]: 1.3 ± 0.6 h
AUC(0-inf) [6]: 0.0228 ± 0.0106 µM·h
Cmax [7]: 28.7 ± 7.6 nM
Tmax [7]: 2.1 ± 0.5 h
AUC(0-inf) [7]: 0.121 ± 0.045 µM·h
Cmax [8]: 16.4 ± 7.8 nM
Tmax [8]: 1.9 ± 0.1 h
AUC(0-inf) [8]: 0.0514 ± 0.0222 µM·h
Cmax [9]: 13.2 ± 5 nM
Tmax [9]: 1.1 ± 0.5 h
AUC(0-inf) [9]: 0.0484 ± 0.0237 µM·h
SMILES: CCOC(=O)C1=C(C)NC(C)=C(C(=O)OC)C1c1cccc(Cl)c1Cl (stereo not drawn) [Felodipine]
